Assay [1] deals with AFB-13 normal human fibroblasts. As to the kind of experiment: Growth of AFB-13 cells, control for cellular toxicity. The assay is classed as cell-based. Here is the method:
(§1) For these assays 2×10^4 cells are plated in 24 well multiwell tissue culture dishes, in 1 ml of DME/F12 media supplemented with 5% fetal bovine serum. After 24 h, media is replaced with fresh media containing the concentration of inhibitor to be tested, or no inhibitor as a control. Cells are counted 1, 3, and 5 days subsequent to addition of inhibitor. For the day 5 counts, media with fresh inhibitor is used to replace spent media after day 3. […] For counting viable cells, cultures are trypsinized, stained with trypan blue, and cell number determined by counting under light microscopy with the use of a hemacytometer. Benzodiazepine derivatives were tested at their maximally soluble concentrations in 0.1% DMSO diluted with tissue culture medium, and serial dilutions were made thereof. Every concentration tested was performed in triplicate, in identical wells under identical assay conditions.

Assay [2] relates to HT-29 colon adenocarcinoma cells. As to the kind of experiment: Growth of HT-29 cells, viable cell count. The assay is classed as cell-based, human. The following applies: viable cell count 5 days after plating. On the procedure:
as §1

For assay [3], the target named is protein kinase A (PKA) (Homo sapiens, UniProt P17612). The experiment in a line: Enzyme panel: protein kinase A. The assay is classed as biochemical.
For assay [4], the system named is HT-29 colon adenocarcinoma cells. As to the kind of experiment: Anchorage-independent growth, soft agar colony formation. The assay is classed as cell-based, human. On the procedure: Soft agar colony formation is used to determine anchorage independent growth, an in vitro parameter which correlates well with tumorigenicity of HT 29 cells. (AFB-13 cells are unable to form soft agar colonies, a characteristic of normal cells). These assays are performed in 6 well ([…]) multiwell tissue culture dishes. The wells are underlayed with 1% low melting agarose in complete growth media, and refrigerated for 15 min. 1×10^3 HT 29 cells are then added to the wells in complete media in 0.5% low melting agarose. […] After a 24 h incubation period, 0.5 mL of media containing compound to be tested (or media alone as a control) is added to the dish. During the assay, media with or without the test compound is replenished every 3 days. Colonies estimated to contain >100 cells are counted after 14 days. For compounds that induce growth inhibition, the assay is continued to 28 days to assure that differences in colony forming ability were not due to altered growth rate of cells. For initial screening, assays are performed in duplicate for each compound to be tested, due to the large amount of inhibitor required for the length of the study.

Assay [5] concerns the target Yes (Homo sapiens, UniProt P07947). As to the kind of experiment: Enzyme panel: Yes. The assay is classed as biochemical. The following applies: apparent value against variable poly E4Y.
Assay [6] addresses T1, Lck (p56^lck) (Mus musculus, UniProt P06240).
T1 construct: glutathione-S-transferase (GST) (N); made in house; host or cells: E. coli
As to the kind of experiment: Lck tyrosine kinase activity, poly E4Y and 32P-ATP. The assay is classed as biochemical. The source says:
(§2) The genes encoding Csk, Lck, Abl, and the FGF receptor have all been cloned. The genes encoding Csk, Abl, and the FGF receptor were cloned from humans, and the genes encoding Lck were cloned from a mouse. Recombinant Csk, Lck, Abl, and the FGFr were expressed as glutathione-S-transferase fusion proteins using the pGEX expression vector and E. coli, and purified as described (Sun et al., 1995).
(§3) Recombinant Src was expressed using the baculovirus-insect cell system and purified as published (Budde et al, 1993). Recombinant Csk, Lck, Abl, and the FGFr were expressed as glutathione-S-transferase fusion proteins using the pGEX expression vector and E. coli, and purified as described (Sun and Budde, 1995).
(§4) The tyrosine kinase activity of Src, Lck (p56^lck), Csk (C-Src kinase), Abl (Bcr-Abl catalytic domain), and the FGFr (fibroblast growth factor receptor catalytic domain), was determined using poly E4 Y and ^32 P-ATP.

The target in assay [7] is T2, Src (Homo sapiens, UniProt P12931).
T2 construct: made in house; host or cells: baculovirus-insect cell system
As to the kind of experiment: Src tyrosine kinase activity, poly E4Y and 32P-ATP. The assay is classed as biochemical. The following applies: for Ki: Table 10, benzodiazepines as inhibitors of Src. On the procedure: The compounds within the library were screened at a concentration of 100 μM using the following assay procedure. A 10 μL aliquot of poly(Glu:Tyr, 4:1) to final concentration of 200 μg/mL, 20 μL of benzodiazepine to be tested, 10 μL of purified Src and 10 μL of [gamma-^32 P]-ATP-MgCl2 cocktail (final concentration of 0.2 mM ATP; specific activity of 600 dpm/pmol, and 6 mM MgCl2) were mixed and incubated in 0.5 mL test tubes at ambient temperature. After 30 min, a 35 μL aliquot was spotted onto a 1×1 inch 3 MM filter paper and dropped into a 5% TCA bath at 60° C. The filter papers were washed 3 times with 5% TCA and air dried. The filter papers were then placed into a vial, 3 mL scintillation cocktail added, and analyzed by liquid scintillation counting.
as §4

Assay [8] concerns the target T3, Csk (C-Src kinase) (Homo sapiens, UniProt P41240).
T3 construct: glutathione-S-transferase (GST) (N); made in house; host or cells: E. coli
As to the kind of experiment: Csk tyrosine kinase activity, poly E4Y and 32P-ATP. The assay is classed as biochemical.
Description: as §2, §3, §4

Assay [9] deals with FGFr (fibroblast growth factor receptor catalytic domain). As to the kind of experiment: FGFr tyrosine kinase activity, poly E4Y and 32P-ATP. The assay is classed as biochemical, human.
Description: as §2, §3, §4

Assay [10] concerns the target hexokinase (HXK). As to the kind of experiment: Enzyme panel: hexokinase. The assay is classed as biochemical.
For assay [11], the target named is T4, Abl (Bcr-Abl catalytic domain) (Homo sapiens, UniProt P00519).
T4 construct: Abl (Bcr-Abl catalytic domain); glutathione-S-transferase (GST) (N); made in house; host or cells: E. coli
T4 sequence (P00519 242-493 limits assumed): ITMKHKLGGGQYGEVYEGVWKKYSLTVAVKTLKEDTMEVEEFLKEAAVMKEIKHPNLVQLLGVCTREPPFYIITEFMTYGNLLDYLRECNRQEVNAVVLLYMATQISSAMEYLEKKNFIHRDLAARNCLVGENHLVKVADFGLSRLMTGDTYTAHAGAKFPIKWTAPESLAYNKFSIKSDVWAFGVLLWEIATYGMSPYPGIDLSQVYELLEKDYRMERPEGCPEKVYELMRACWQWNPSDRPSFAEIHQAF
The experiment in a line: Abl tyrosine kinase activity, poly E4Y and 32P-ATP. The assay is classed as biochemical.
Description: as §2, §3, §4

[12] abbreviates: Homo sapiens, Fibroblast, 120 h, viable cell count 5 days after plating.
Setting [13] is: Homo sapiens, HT-29, 336 h, colonies ≥100 cells 14 days after plating.

T2 sequence (P12931 whole entry, species assumed): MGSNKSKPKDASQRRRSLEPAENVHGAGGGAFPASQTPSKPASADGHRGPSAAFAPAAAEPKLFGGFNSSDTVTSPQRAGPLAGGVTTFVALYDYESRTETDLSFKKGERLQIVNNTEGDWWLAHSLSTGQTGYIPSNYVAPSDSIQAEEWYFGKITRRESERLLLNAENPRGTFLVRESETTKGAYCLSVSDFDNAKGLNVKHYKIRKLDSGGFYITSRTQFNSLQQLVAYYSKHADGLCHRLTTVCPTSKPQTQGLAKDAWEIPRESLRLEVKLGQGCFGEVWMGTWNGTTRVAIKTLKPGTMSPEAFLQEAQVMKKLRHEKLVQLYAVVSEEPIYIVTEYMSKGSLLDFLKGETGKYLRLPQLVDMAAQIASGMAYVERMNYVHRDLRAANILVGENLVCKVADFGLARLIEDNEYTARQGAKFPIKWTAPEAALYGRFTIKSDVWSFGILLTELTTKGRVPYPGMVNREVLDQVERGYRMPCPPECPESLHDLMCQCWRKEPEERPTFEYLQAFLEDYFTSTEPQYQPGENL
T3 sequence (P41240 whole entry): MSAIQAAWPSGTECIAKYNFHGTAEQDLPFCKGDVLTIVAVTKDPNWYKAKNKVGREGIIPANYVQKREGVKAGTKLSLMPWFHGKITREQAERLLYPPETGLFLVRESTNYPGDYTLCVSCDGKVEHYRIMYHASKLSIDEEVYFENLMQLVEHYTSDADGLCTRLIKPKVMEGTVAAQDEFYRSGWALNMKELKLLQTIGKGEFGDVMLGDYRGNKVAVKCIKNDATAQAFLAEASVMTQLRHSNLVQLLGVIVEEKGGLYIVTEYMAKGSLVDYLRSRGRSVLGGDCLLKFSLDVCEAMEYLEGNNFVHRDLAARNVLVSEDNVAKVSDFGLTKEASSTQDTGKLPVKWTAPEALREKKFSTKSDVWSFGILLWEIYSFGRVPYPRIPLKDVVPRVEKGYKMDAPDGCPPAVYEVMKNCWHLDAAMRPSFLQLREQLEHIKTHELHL
T1 sequence (P06240 whole entry): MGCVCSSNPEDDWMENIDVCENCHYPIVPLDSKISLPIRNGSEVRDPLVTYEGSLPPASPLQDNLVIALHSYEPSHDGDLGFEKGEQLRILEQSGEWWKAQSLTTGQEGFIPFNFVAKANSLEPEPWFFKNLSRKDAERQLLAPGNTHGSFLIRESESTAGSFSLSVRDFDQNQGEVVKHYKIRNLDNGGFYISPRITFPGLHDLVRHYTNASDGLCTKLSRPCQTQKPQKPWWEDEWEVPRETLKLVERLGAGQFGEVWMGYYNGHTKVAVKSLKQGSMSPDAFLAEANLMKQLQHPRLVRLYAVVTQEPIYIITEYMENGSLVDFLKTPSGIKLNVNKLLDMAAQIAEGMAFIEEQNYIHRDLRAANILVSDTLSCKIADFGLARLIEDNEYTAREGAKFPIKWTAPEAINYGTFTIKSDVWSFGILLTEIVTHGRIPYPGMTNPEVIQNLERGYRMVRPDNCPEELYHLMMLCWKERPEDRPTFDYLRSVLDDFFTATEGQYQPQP
Yes, sequence (P07947 whole entry, species assumed): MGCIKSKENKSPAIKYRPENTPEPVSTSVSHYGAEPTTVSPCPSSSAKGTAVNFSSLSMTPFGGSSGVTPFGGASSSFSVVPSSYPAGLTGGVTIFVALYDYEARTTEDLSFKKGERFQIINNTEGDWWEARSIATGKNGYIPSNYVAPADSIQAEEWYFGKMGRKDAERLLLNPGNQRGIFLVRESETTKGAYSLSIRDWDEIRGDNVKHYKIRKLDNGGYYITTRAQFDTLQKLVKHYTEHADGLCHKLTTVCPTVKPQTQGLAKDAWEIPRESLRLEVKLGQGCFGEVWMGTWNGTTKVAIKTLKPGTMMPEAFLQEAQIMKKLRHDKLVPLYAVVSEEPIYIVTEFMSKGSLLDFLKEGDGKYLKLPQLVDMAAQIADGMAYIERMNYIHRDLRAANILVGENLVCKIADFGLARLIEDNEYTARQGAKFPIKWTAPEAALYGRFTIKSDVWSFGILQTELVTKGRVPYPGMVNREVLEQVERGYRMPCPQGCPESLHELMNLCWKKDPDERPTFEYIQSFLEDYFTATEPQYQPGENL

Usually IC50 stands for the concentration needed to halve the response being measured. Lower therefore signals higher potency. As to `O=C1[C@H](Cc2ccc(O)cc2)N=C(c2ccc(O)cc2)c2cc(Cl)ccc2N1Cc1ccc(-c2ccccc2)cc1` [L-Tyr,BnzPh, 7-chloro-1,3-dihydro-1-(-4-biphenylmethyl)-3-(-4-hydroxyphenylmethyl)-5-(4-hydroxyphenyl)-(2H)1,4-benzodiazepin-2-one], the activity at 3 µM in assay [1] (setting [12]) was 89 ± 6%; in assay [2] (Homo sapiens, HT-29, 120 h), 100 ± 10%; in assay [4] (setting [13]), 29%. Also, the activity at 14 µM in assay [1] (Homo sapiens, Fibroblast, 120 h, 14 μM, viable cell count 5 days after plating) is 97 ± 5%; in assay [2] (Homo sapiens, HT-29, 120 h, 14 μM), 98 ± 9%; in assay [4] (Homo sapiens, HT-29, 336 h, 14 μM, colonies ≥100 cells 14 days after plating) it was 8%. Besides, the activity at 28 µM in assay [1] (Homo sapiens, Fibroblast, 120 h, 28 μM, viable cell count 5 days after plating) turned out to be 90 ± 4%; in [4] (Homo sapiens, HT-29, 336 h, 28 μM, colonies ≥100 cells 14 days after plating), 0%. In addition, the “inhibition of growth of AFB-13 normal fibroblasts” value in assay [1] (same concentrations (up to 28 μM)) was “Less than 10%”. Also, the “HT-29 Growth” value in [2] (28 μM) was “cytotoxic”. Moreover, the IC50 amounted to 450 µM in assay [3], 505 µM in assay [6], 73 µM in assay [7] and 136 µM in assay [8]. The Ki turned out to be 104 µM in assay [3] (apparent value), 50 µM in assay [5], 20 µM in [7] and 63 µM in assay [8] (apparent value against variable poly E4Y). Besides, the “inhibition of colony formation of HT-29 colon adenocarcinoma cells” value in assay [4] (28 μM) is “complete inhibition”. The mode of inhibition entry in assay [7] (against variable ATP or variable poly E4Y) was “mixed”.

For `O=C1[C@H](Cc2ccc(O)cc2)N=C(c2ccc(O)cc2)c2cc(Cl)ccc2N1Cc1ccccc1` [L-Tyr,Bnz], the IC50 was 418 µM in [9]; 352 µM in assay [10]; 124 µM in assay [3]; 931 µM in assay [11]; 570 µM in assay [6]; 190 µM in assay [7]. Inhibition in [8] was half-maximal at 404 µM (IC50). Besides, the activity at 3 µM was 100 ± 4% in assay [1] (setting [12]); 100 ± 3% in assay [2] (Homo sapiens, HT-29, 120 h); 52% in assay [4] (setting [13]). Further, the activity at 15 µM in assay [1] (Homo sapiens, Fibroblast, 120 h, 15 μM, viable cell count 5 days after plating) was found to be 92 ± 6%; in assay [2] (Homo sapiens, HT-29, 120 h, 15 μM) it was 84 ± 6%; in assay [4] (Homo sapiens, HT-29, 336 h, 15 μM, colonies ≥100 cells 14 days after plating), 11%. In addition, the activity at 30 µM in [1] (Homo sapiens, Fibroblast, 120 h, 30 μM, viable cell count 5 days after plating) came to 92 ± 8%; in [2] (Homo sapiens, HT-29, 120 h, 30 μM) it was 73 ± 9%; in [4] (Homo sapiens, HT-29, 336 h, 30 μM, colonies ≥100 cells 14 days after plating), 0%. Moreover, the “inhibition of growth of AFB-13 normal fibroblasts” value in [1] (same concentrations (up to 30 μM)) was “no inhibition”. Further, the “inhibition of colony formation of HT-29 colon adenocarcinoma cells” value in [4] (30 μM) was “complete inhibition”. The Ki in assay [7] was 74 µM.

The values are drawn from patent US6100254A, “Inhibitors of protein tyrosine kinases” (Board of Regents, The University of Texas System, priority 1997, dated 2000).
